Results from US7807350B2 (The University of Chicago, priority 2003, dated 2010).
Like-named read-outs stand apart in the source and are kept apart here.

Experiments:
[1] = Pharmacokinetic analysis of plasma irinotecan, SN-38 and SN-38G in patients, by TA indel genotype; type: in vivo, human; settings: for SN-38 AUC (mean) / SN-38G AUC (mean): after irinotecan
Description: Samples of 7 ml were collected into green top sodium heparinized Vacutainer® tubes prior to the infusion; 30, 60, and 90 minutes during the infusion; and 10, 20, 30, 45, and 60 minutes and 1.5, 2, 4, 6, 12, and 24 hours after the infusion. Samples were centrifuged (2500 rpm, 20 min, 4° C.) and the plasma was immediately separated, transferred as two aliquots into storage tubes, frozen at −80° C. until analysis.

[2] = relative to irinotecan; cited from earlier work
[3] = cited from earlier work
[4] = Toxicity (neutropenia, diarrhea, toxic death) in cycle 1 of irinotecan 350 mg/m2 every 3 weeks in cancer patients, by UGT1A1 genotype; settings: for frequency of grade 4 neutropenia: cycle 1
[5] = Objective tumor response in the irinotecan 350 mg/m2 every 3 weeks trial; type: in vivo, human
Description: History, physical examination, complete blood count (CBC) with differential, serum chemistry profile (electrolytes, blood urea nitrogen, creatinine, glucose, albumin, alkaline phosphatase, GGTP, AST, ALT, total and conjugated bilirubin, uric acid, and lactate dehydrogenase), and coagulation profile (prothrombin time and partial thromboplastin time) were conducted prior to first treatment. Thereafter, history, physical examination, and toxicity assessment were conducted on day 1 of each cycle unless treatment-related toxicity required more frequent follow up. CBC and serum chemistry profile were obtained weekly throughout treatment, though CBCs were obtained 3 times per week with the appearance of grade 3 or 4 neutropenia or thrombocytopenia. Toxicity assessment was done according to the NCI common toxicity criteria, version 2.0 (website: ctep.cancer.gov). Objective tumor assessment by appropriate radiographic imaging was performed prior to starting therapy and after every 2 cycles.

[6] = 6/6 TA indel genotype, 30 patients
[7] = 6/7 TA indel genotype, 25 patients
[8] = 7/7 TA indel genotype, 6 patients

SMILES: CCc1c2c(nc3ccc(O)cc13)-c1cc3c(c(=O)n1C2)COC(=O)[C@]3(O)CC [SN-38, 7-ethyl-10-hydroxycamptothecin]
- Glucuronidation Ratio (SN-38G AUC/SN-38 AUC) [1, 6]: 6.52
- SN-38 AUC (mean) [1, 6]: 0.3359 µg·h/mL
- Glucuronidation Ratio (SN-38G AUC/SN-38 AUC) [1, 7]: 5.55
- SN-38 AUC (mean) [1, 7]: 0.4584 µg·h/mL
- Glucuronidation Ratio (SN-38G AUC/SN-38 AUC) [1, 8]: 3.59
- SN-38 AUC (mean) [1, 8]: 0.542 µg·h/mL
- antitumor activity higher than irinotecan [2]: 100-1,000 fold

SMILES: CCc1c2c(nc3ccc(OC(=O)N4CCC(N5CCCCC5)CC4)cc13)-c1cc3c(c(=O)n1C2)COC(=O)[C@]3(O)CC [irinotecan, 7-ethyl-10-[4-(1-piperidino)-1-piperidino]carbonyloxycamptothecin]
- patients with grade 3-4 diarrhea ([3]; early single agent trials, dose limiting): about one third
- frequency of grade 3-4 diarrhea ([3]; three-weekly regimen): 19%
- mortality rate ([3]; three-weekly single agent regimen): 1.6%
- frequency of grade 3-4 diarrhea ([3]; weekly schedule): 36%
- mortality rate ([3]; weekly single agent regimen): 5.3%
- toxic death ([4]; neutropenia-related sepsis, day 11 of cycle 1, 7/7 genotype): One toxic death
- frequency of grade 4 neutropenia ([4]; patients with 6/6 genotype (0/30)): 0%
- frequency of grade 4 neutropenia ([4]; patients with 7/7 genotype (3/6)): 50%
- cases of grade 4 neutropenia ([4]; patients with pretreatment bilirubin less than 0.6 mg/dl): No cases
- objective responses ([5]; 60 patients assessable for response): 3
- patients achieving a partial response ([5]; colorectal and head and neck cancer, 6/7 genotype): Two
- patients achieving a complete response ([5]; colorectal cancer, 6/6 genotype): One

SMILES: CCc1c2c(nc3ccc(O[C@@H]4O[C@H](C(=O)O)[C@@H](O)[C@H](O)[C@H]4O)cc13)-c1cc3c(c(=O)n1C2)COC(=O)[C@]3(O)CC [SN-38G, 10-O-glucuronyl-SN-38]
- SN-38G AUC (mean) [1, 6]: 1.9542 µg·h/mL
- SN-38G AUC (mean) [1, 7]: 1.8879 µg·h/mL
- SN-38G AUC (mean) [1, 8]: 1.8191 µg·h/mL
